The results in this text go back to US5300672A (priority 1992, dated 1994).

As usually defined, the MIC is the least concentration at which growth counts as inhibited.

The subject of experiment [1] is Phytophthora infestans. Briefly: whole plant or invertebrate. To be noted: for pest or weed control at 200 ppm / pest or weed control at 100 ppm: Phytophthora infestans, in Solanum lycopersicum, 96 h; for pest or weed control at 200 ppm: read-out: % Control TLB, application rate 200 ppm. In kind it is in vivo.
Experiment [2] concerns Pythium ultimum. Briefly: Pythium ultimum in vitro Fungitoxicity Assay in liquid culture. In kind it is cell-based, Pythium ultimum (ATCC 26083). To be noted: mycelial dry weight, 48 h at 25° C., shaking at 60 rpm. On the procedure:
Selected compounds of Examples 1-120 were subjected also to the following in vitro fungitoxicity assay against Pythium ultimum in a liquid culture, with the results as indicated in Table 6.
Pythium ultimum Fungitoxicity Assay
A dilution series of the test compound was prepared in dimethylsulfoxide, and 0.1 ml of each dilution was added to 19.9 ml of a liquid asparagine-sucrose medium (D. C. Erwin and K. Katznelson (1971), Can. J. Microbiol. 7, 15) in 9 cm diameter petri dishes to give the desired final concentrations of test compound. Plates were inoculated with mycelial plugs, 7 mm diameter, taken from the growing edge of 48 h old cultures of Pythium ultimum, (ATCC 26083), grown on potato dextrose agar. Two replicate plates were used for each treatment. The increase in mycelial dry weight was determined after growth for 48 h at 25° C. with shaking at 60 rpm. EC50 values were calculated from dose response curves.

In experiment [3] the test system is Pseudomonas fluorescens. Briefly: Alternate Minimum Inhibitory Concentrations Test (Table 4), Ps.fl. The experiment is classed as cell-based. To be noted: for MIC: Pseudomonas fluorescens, read-out: MIC Ps.fl. The essentials:
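Broth microdilution MIC in TSB: compound (from acetone stock) serially diluted 1:1 from 250 ppm to 0.8 ppm, inoculated with diluted 24 h culture. After 3 days at 30 °C, the lowest concentration with no growth was recorded as MIC.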

The test system of experiment [4] is Pellicularia filamentosa (f. sp. sasiki). Briefly: whole plant or invertebrate. In kind it is in vivo. To be noted: 120 h; read-out: % Control RSB.
The test system of experiment [5] is Piricularia oryzae. Briefly: whole plant or invertebrate. The experiment is classed as in vivo. To be noted: for pest or weed control at 200 ppm: read-out: % Control RB, application rate 200 ppm.
Experiment [6] deals with Erysiphe graminis (f. sp. tritici). Briefly: whole plant or invertebrate. In kind it is in vivo. To be noted: for pest or weed control at 200 ppm / pest or weed control at 100 ppm: Blumeria graminis, read-out: % Control WPM.
Experiment [7] relates to Puccinia recondita (f. sp. tritici Races PKB and PLD). Briefly: whole plant or invertebrate. In kind it is in vivo. To be noted: for pest or weed control at 200 ppm / pest or weed control at 100 ppm: Puccinia recondita, 240 h, read-out: % Control WLR.
For experiment [8], the system named is Pseudoperonospora cubensis. Briefly: whole plant or invertebrate. The experiment is classed as in vivo.
Experiment [9] concerns Staphylococcus aureus. Briefly: Broth two-fold serial dilution MIC test (Table 3), S.a. To be noted: gram positive, dilution series 500 to 4 ppm. The experiment is classed as cell-based. The source says: (§1) A minimum inhibitory concentration (MIC) value is obtained using a broth, two-fold serial dilution test performed as follows: A stock solution or dispersion of the test compound, typically at a concentration of 1%, is made in a 5:3:2 solvent solution of acetone, methanol, and water. A volume of the stock solution is dispensed into culture media to give an initial starting test concentration of 500 ppm compound.
(§2) When the test is ready to be done, each vessel in the dilution series, except the first vessel, contains an equal volume of compound free broth. The first vessel contains twice the volume of broth with the starting concentration of test compound. One half of the broth from the first vessel is transferred to the second vessel. After being mixed, one half the resulting volume is removed from the second vessel and transferred to the third vessel. The entire cycle is repeated sufficiently to give a series of concentrations amounting to 500, 250, 125, 63, 31, 16, 8, and 4 ppm, respectively.
(§3) Each vessel is then inoculated with a cell suspension of the appropriate test organism. Bacteria are grown in broth and fungi on agar slants for a time and at a temperature appropriate to the species being tested. At the end of the growth period, the broth is vortexed to disperse the cells. In the case of fungi, the spores are harvested by pipetting water onto the slant and dislodging the spores with a sterile loop. The cell/spore suspension is standardized by controlling incubation time, temperature, and the volume of the diluent. The suspension is then used to inoculate the vessels containing the broth compound. The vessels are then incubated at the appropriate temperature. After the incubation, the vessels are examined for growth/no growth. The minimum inhibitory concentration (MIC) is defined as the lowest concentration of compound that results in complete inhibition of growth of the test organism.
Staphylococcus aureus (S.a), gram positive

Experiment [10] deals with Aureobasidium pullulans. Briefly: Broth two-fold serial dilution MIC test (Table 3), A.p. In kind it is cell-based. To be noted: dilution series 500 to 4 ppm.
Excerpt: as §1, §2, §3
Aureobasidium pullulans (A.p)

Experiment [11] deals with Escherichia coli. Briefly: Broth two-fold serial dilution MIC test (Table 3), E.c. The experiment is classed as cell-based. To be noted: gram negative, dilution series 500 to 4 ppm.
Excerpt: as §1, §2, §3
Escherichia coli (E.c), gram negative

Experiment [12] deals with Aspergillus niger. Briefly: Broth two-fold serial dilution MIC test (Table 3), A.n. To be noted: dilution series 500 to 4 ppm. The experiment is classed as cell-based.
Excerpt: as §1, §2, §3

For experiment [13], the system named is Pseudomonas fluorescens. Briefly: Broth two-fold serial dilution MIC test (Table 3), Ps.fl. To be noted: gram negative, dilution series 500 to 4 ppm. In kind it is cell-based.
Excerpt: as §1, §2, §3
Pseudomonas fluorescens (Ps.fl), gram negative

For experiment [14], the system named is Pseudomonas aerugenosa. Briefly: Broth two-fold serial dilution MIC test (Table 3), Ps.ae. The experiment is classed as cell-based. To be noted: gram negative, dilution series 500 to 4 ppm.
Excerpt: as §1, §2, §3
Pseudomonas aerugenosa (Ps.ae), gram negative

Experiment [15] has as its system Puccinia graminis (f. sp. tritici Race 15B-2). Briefly: whole plant or invertebrate. In kind it is in vivo. To be noted: application rate 200 ppm.
[16] abbreviates: Globisporangium ultimum, read-out: EC 50.
The mark [17] stands for this setting: Table 4 alternate test, 250 ppm to 0.8 ppm in TSB, 72 hours, 30° C.
[18] abbreviates: read-out: % Control TLB, application rate 100 ppm.

≈ marks a conversion by molar mass, not a printed value. Like-named read-outs stand apart in the source and are kept apart here.

On to `CCCCCCCCNC(=O)/C=C\SC(=O)c1cccn1C` [Compound 61, N-octyl-cis-3-[(1-methyl-2-pyrrole)carbonylthio]acrylamide], for which the pest or weed control at 200 ppm in experiment [1], in experiment [4], in [5] (Pyricularia oryzae), in experiment [6] and in [7] was 0% each time. In addition, the EC50 in [2] (setting [16]) was 59.5 µg/mL (≈ 185 µM). For the same compound, in experiment [3] (setting [17]), the MIC was > 250 µg/mL.
Turning to `O=C(/C=C\SC(=O)c1ccccc1)NCCN1CCOCC1` [Compound 116, N-[2-(4-morpholine)ethyl]-cis-3-(benzoylthio)acrylamide], the pest or weed control at 200 ppm in experiment [1] was 0%; in experiment [6], 0%; in experiment [7], 0%; in [8] (Pseudoperonospora cubensis, in Cucumis sativus, 168 h, read-out: % Control CDM), 0%. Also, the EC50 in [2] (setting [16]) was determined as 10.3 µg/mL (≈ 32.1 µM). Also, the MIC in [3] (setting [17]) is > 250 µg/mL. For the same compound, the pest or weed control at 12 ppm in experiment [5] (Pyricularia oryzae, read-out: % Control RB, application rate 12 ppm) was found to be 50%.
With `CCCCCCCCNC(=O)/C=C\SC(=O)c1ccc(CCCC)cc1` [Compound 115, N-octyl-cis-3-[(4-butylbenzoyl)thio]acrylamide], the MIC in experiment [9] was > 500 µg/mL; in [10], ≥ 250 µg/mL; in experiment [11], > 500 µg/mL; in experiment [3] (72 h) it was > 250 µg/mL; in experiment [12], > 500 µg/mL; in experiment [13], > 500 µg/mL. For the same compound, the MIC in experiment [14] was > 500 µg/mL. For the same compound, the pest or weed control at 200 ppm in [1] is 0%.
Regarding `CCCCCCCCNC(=O)/C=C\SC(=O)C1CCc2ccccc2C1` (stereo not drawn) [Compound 74, N-octyl-cis-3-[(1,2,3,4-tetrahydronaphth-2-oyl)thio]acrylamide], the pest or weed control at 200 ppm in experiment [1], in experiment [4], in experiment [5] (Pyricularia oryzae), in [6] and in experiment [7] was 0% each time. The EC50 in [2] (setting [16]) was 5 µg/mL (≈ 13.4 µM). In addition, the MIC in experiment [3] (setting [17]) was > 250 µg/mL.
Regarding `CCCCCCCCNC(=O)/C=C\SC(=O)c1nccc2ccccc12` [Compound 73, N-octyl-cis-3-[(1-isoquinoline)carbonylthio]acrylamide], the pest or weed control at 200 ppm amounted to 0% in [1]; 0% in experiment [4]; 0% in experiment [5] (Pyricularia oryzae); 0% in [6]; 25% in [7]. For the same compound, the EC50 in experiment [2] (setting [16]) was found to be 8.4 µg/mL (≈ 22.7 µM). In experiment [3] (setting [17]), the MIC was > 250 µg/mL.
Consider `CCCCCCCCNC(=O)/C=C\SC(=O)/C=C/c1ccc(C(F)(F)F)cc1` [Compound 70, N-octyl-cis-3-[(trans-3-(4-(trifluoromethyl)phenyl)propenoyl)thio]acrylamide], for which the pest or weed control at 200 ppm stood at 0% in experiment [1]; 0% in experiment [4]; 50% in [5] (Pyricularia oryzae); 0% in experiment [6]; 0% in [7]. The EC50 in experiment [2] (setting [16]) was 5 µg/mL (≈ 12.1 µM). In addition, the MIC in [3] (setting [17]) is > 250 µg/mL.
Turning to `CCCCCCCCNC(=O)/C=C\SC(=O)CC(C)c1ccccc1` (stereo not drawn) [Compound 78, N-octyl-cis-3-[(3-phenylbutanoyl)thio]acrylamide], the pest or weed control at 200 ppm in experiment [1], in experiment [4], in experiment [5] (Pyricularia oryzae), in experiment [6] and in experiment [7] was 0% in each case. Also, in experiment [2] (setting [16]), the EC50 was found to be 23.9 µg/mL (≈ 66.1 µM). Besides, in experiment [3] (setting [17]), the MIC is > 250 µg/mL.
Turning to `CCCCCCCCNC(=O)/C=C\SC(=O)c1ccc2ccccc2n1` [Compound 76, N-octyl-cis-3-[(2-quinoline)carbonylthio]acrylamide], the pest or weed control at 200 ppm in experiment [1], in [4], in experiment [5] (Pyricularia oryzae), in [6] and in experiment [7] was 0% in each case. For the same compound, the EC50 in experiment [2] (setting [16]) came out at 13.2 µg/mL (≈ 35.6 µM). For the same compound, in [3] (setting [17]), the MIC is > 250 µg/mL.
As for `CCCCCCCCNC(=O)/C=C\SC(=O)c1ccc(Br)cn1` [Compound 53, N-octyl-cis-3-[(5-bromo-2-pyridine)carbonylthio]acrylamide], the pest or weed control at 100 ppm in [1] (setting [18]), in experiment [4], in [6] and in [7] was 0% in each case. For the same compound, in experiment [2] (setting [16]), the EC50 worked out at 10.2 µg/mL (≈ 25.5 µM). Further, the MIC in experiment [3] (setting [17]) is > 250 µg/mL.
Turning to `CCCCCCCCNC(=O)/C=C\SC(=O)c1ccc(N=C=S)cc1` [Compound 48, N-octyl-cis-3-[(4-isothiocyanobenzoyl)thio]acrylamide], the pest or weed control at 100 ppm in experiment [1] (setting [18]) came out at 0%. The EC50 in experiment [2] (setting [16]) was found to be 8.2 µg/mL (≈ 21.8 µM). Also, in experiment [3] (setting [17]), the MIC is > 250 µg/mL.
On to `CCCCCCCCNC(=O)/C=C\SCn1cncn1` [Compound 7, N-octyl-cis-3-[1-(1,2,4-triazoyl)methylthio]acrylamide], for which the pest or weed control at 100 ppm in [1] (setting [18]), in experiment [6] and in experiment [7] was 0% each time. Also, the EC50 in experiment [2] (setting [16]) came out at 50 µg/mL (≈ 169 µM). Moreover, the MIC in [3] (setting [17]) was > 250 µg/mL. The pest or weed control at 6 ppm in experiment [4] is 50%.
Turning to `CCCCCCCCNC(=O)/C=C\SCC(O)c1ccco1` (stereo not shown) [Compound 42], in [1] (application rate 200 ppm), the “% Control TLB” value came to 0 % Control. Further, the “EC50” value in experiment [2] is on record as 9 ppm. In addition, the “MIC Ps.fl” value in experiment [3] (setting [17]) is recorded as > 250 Ppm. Further, the “% Control RB” value in experiment [5] (in vivo) was 90 % Control. The “% Control WPM” value in experiment [6] (in vivo) is reported as 0 % Control. In addition, the “% Control WLR” value in [7] (in vivo) was 0 % Control. Also, the “% Control CDM” value in experiment [8] (in vivo) was 50 % Control. In addition, the “% Control WSR” value in experiment [15] was found to be 50 % Control.
As to `CCCCCCCCNC(=O)/C=C\SC(=O)C1=CCCCC1` [Compound 9, N-octyl-cis-3-[(1-cyclohexene)carbonylthio]acrylamide], the MIC was > 500 µg/mL in experiment [9]; < 4 µg/mL in [10]; > 500 µg/mL in experiment [11]; > 500 µg/mL in [12]; > 500 µg/mL in [13]; > 500 µg/mL in experiment [14]. Besides, the pest or weed control at 100 ppm was determined as 90% in experiment [1] (read-out: % Control TLB); 0% in [4]; 90% in experiment [5] (Pyricularia oryzae, read-out: % Control RB, application rate 100 ppm); 0% in experiment [6]; 0% in experiment [7].
